Measurements as given in BindingDB's records for doi:10.1021/jm00040a015 (Pfizer, 1994).

Molecular target: cAMP-dependent protein kinase catalytic subunit alpha (Bos taurus, UniProt P00517)
Experiment: PKA Inhibition Assay
Excerpt: IC50 is the inhibitor concentration, which inhibits 50% of PKA activity that catalyzes the transfer of the terminal phosphate from [gamma-32P] labeled ATP to a synthetic kemptide peptide substrate.

| IC50 (pH 7.4, 30 °C) | IC50 | Compound |
| --- | --- | --- |
| > 800 µM |  | Oc1cc2nc(O)c3cc(O)c(O)cc3c2cc1O [2,3,8,9-tetrahydroxy-5,6-dihydrophenanthridin-6-one] |
| > 2000 µM |  | CCn1c(=O)c2cc(O)c(O)cc2c2cc(O)c(O)cc21 [5-ethyl-2,3,8,9-tetrahydroxy-5,6-dihydrophenanthridin-6-one] |
|  | > 600 µM | O=S(=O)(c1ccccc1)n1c2cc(O)c(O)cc2c2cc(O)c(O)cc21 [9-(benzenesulfonyl)-9H-carbazole-2,3,6,7-tetrol] |
